US11116767B2, “3,5-disubstituted pyrazoles useful as checkpoint kinase 1 (Chk1) inhibitors, and their preparations and applications” (PHARMAENGINE, INC., priority 2016, dated 2021)

What was measured:
Chk1 = molecular target: T1, Chk1 (Homo sapiens, UniProt O14757); assay: biochemical; settings: ADP-Glo; read-out: Chk1 in vitro enzyme activity (grade)
T1 construct: purchased BPS 40039
T1 sequence (O14757 1-476): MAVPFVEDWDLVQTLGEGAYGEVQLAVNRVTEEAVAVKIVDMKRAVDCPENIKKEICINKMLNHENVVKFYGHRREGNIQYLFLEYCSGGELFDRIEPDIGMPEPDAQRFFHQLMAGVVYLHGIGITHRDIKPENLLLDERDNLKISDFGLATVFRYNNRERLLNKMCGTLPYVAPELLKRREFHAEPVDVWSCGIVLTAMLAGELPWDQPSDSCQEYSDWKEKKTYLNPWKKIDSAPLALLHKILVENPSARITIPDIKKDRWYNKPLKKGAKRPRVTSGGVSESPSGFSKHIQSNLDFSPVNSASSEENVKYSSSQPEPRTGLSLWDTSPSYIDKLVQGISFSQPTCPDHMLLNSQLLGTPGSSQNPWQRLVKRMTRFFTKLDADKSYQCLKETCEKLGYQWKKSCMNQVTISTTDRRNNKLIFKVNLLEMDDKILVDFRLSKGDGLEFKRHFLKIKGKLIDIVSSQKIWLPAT

Chk2 = molecular target: T2, Chk2 (Homo sapiens, UniProt O96017); assay: biochemical; settings: ADP-Glo; read-out: Chk2 in vitro enzyme activity (grade)
T2 construct: purchased Carna 02-162
T2 sequence (O96017 whole entry): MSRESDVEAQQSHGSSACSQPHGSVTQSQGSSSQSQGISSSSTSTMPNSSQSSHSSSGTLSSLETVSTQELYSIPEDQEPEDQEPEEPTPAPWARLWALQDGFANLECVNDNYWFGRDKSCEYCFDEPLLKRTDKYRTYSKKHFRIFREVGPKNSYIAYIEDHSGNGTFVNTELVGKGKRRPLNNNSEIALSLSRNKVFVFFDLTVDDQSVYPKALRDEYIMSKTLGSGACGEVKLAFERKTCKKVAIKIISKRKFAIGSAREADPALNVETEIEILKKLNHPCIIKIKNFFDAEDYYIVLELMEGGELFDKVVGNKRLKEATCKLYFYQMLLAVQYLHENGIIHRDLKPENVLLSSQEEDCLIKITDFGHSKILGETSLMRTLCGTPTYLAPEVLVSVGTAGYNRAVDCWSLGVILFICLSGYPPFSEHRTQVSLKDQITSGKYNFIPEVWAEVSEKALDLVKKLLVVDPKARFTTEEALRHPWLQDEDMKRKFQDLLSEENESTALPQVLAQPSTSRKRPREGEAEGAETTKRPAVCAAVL

HT-29 = assay: Cancer cell growth inhibition assay (CellTiter-Glo), HT-29; type: cell-based, Human; settings: Homo sapiens, HT-29; 72 hours, cellular ATP content; read-out: HT-29 anti cell proliferation activity (grade)
Method: Human cancer cell lines were purchased from American Type Culture Collection (Manassas, Va.). The trypsinized cells were diluted to required volume at densities of 44,000 cells/ml. 90 ul cell slurry was dispensed per well in 96-well flat-bottomed plates with the recommended culture medium. The cells were incubated for 24 hours at 37° C. in 5% CO2 under humidified condition. The cells were then incubated with compounds at various concentrations for 72 hours in culture medium supplemented with 0.5% (v/v) FBS. Growth inhibition was assessed by assay of cellular ATP content using CellTiter-Glo reagent to each well. Luminesce was read on Envision. The inhibition rate (%)=(Max signal compound signal)/(Max signal Min signal)×100.

[1] = Pharmacokinetics study in rats, intravenous; type: in vivo, SD rats; settings: rat, in vivo, iv
Method: Compounds were formulated in 30% SEB-β-CD (Zhiyuan Bio-technology) with 1 molar equivalents of HCl (pH adjusted to 3-5). Male SD rats (280-350 g) were purchased from Medical Laboratory Animal Center of Guangdong. Three rats were used for each PK study. […] At various time points after compound administration, approximately 0.2˜0.3 mL of blood was collected by cutting the end of tail into tubes containing K2-EDTA. The plasma was separated via centrifugation and stored at −80° C. A PE Sciex API-3000 LC-MS/MS system (Applied Biosystems, Inc.) was used to analyze compound concentrations in plasma.
PK studies of ChK1 inhibitors were conducted in rats after intravenous administration at 10 mg/kg. […]. […]

in vivo = assay: in vivo; set-up: species or system Balb/c nude mice; settings: mouse, iv, 40 mg/kg
Method: (§1) Female Balb/c nude mice at 7-8 weeks of age (Body weights between 17-18g) were purchased from Hunan SJA Laboratory Animal Co., Ltd. HT-29 cells were cultured in DMEM culture medium containing 10% fetal bovine serum and LoVo cells were cultured in RPMI 1640 culture medium containing 10% fetal bovine serum. The cells were harvested and washed with serum free culture medium. Finally, the cells were suspended at a cell density of […] in serum free culture medium for implantation. 5 million cells per animal suspended in 0.1 ml serum free culture medium and 1.1 matrigel were injected into the right flank of the animals after a one, week acclimation period. When average tumor volume reached acceptable tumor size (100-200 mm^3) and shape, the animals were randomly assigned into treatment groups.
Compound 3 was selected for further PK studies in tumor bearing mice. HT-29 colon cancer cells were implanted to establish the xenograft model in Balb/c nude mice. Twenty-four mice were divided into 8 time groups with n=3/group. Compound 3 was dissolved in 30% SEB-β-CD (Zhiyuan Bio-technology) with 1 molar equivalents of HCl. Each animal was dosed via intravenous administration of Compound 3 at 40 mg/kg. Blood and tumors were collected at various time points after mice were euthanized with CO2. Blood samples were centrifuged at 4° C. immediately after collection. The supernatants were transferred to 1.5 mL of Eppendorf vials as soon as possible and stored at −80° C. in a freezer. Tumor samples were collected and placed in dry ice until transferred to a −80° C. freezer for bioanalysis.

[2] = system: HT-29 colon cancer xenograft; type: in vivo
Method: as §1
HT-29 colon cancer cells were implanted to establish the xenograft model in Balb/c nude mice. Compound 3 and LY2606368 were dissolved in 30% SEB-β-CD (Zhiyuan Bio-technology) with 1 molar equivalents of HCl. GDC-575 was suspended in 0.5% methyl cellulose/0.1% Tween 80 in water. […]. The animals well tolerated each treatment in the HT-29 colon cancer in nude mice model.

HT-29 tumor xenograft = assay: HT-29 xenograft model, alone or in combination with CPT-11; type: in vivo, Balb/c nude mice; settings: for % T/C value: 40 mg/kg, IV
Method: as §1
In HT-29 tumor xenograft model, the animals were treated with a single compound, a ChK1 inhibitor or CPT-11, or a combination with CPT11. […] The animals well tolerated each treatment in the HT-29 colon cancer in nude mice model.

**Q.** With `COc1cc(F)cc(OCCCN)c1-c1cc(Nc2cnc(C#N)cn2)n[nH]1` [Compound 3, 5-(5-(2-(3-Aminopropoxy)-4-fluoro-6-methoxyphenyl)-1H-pyrazol-3-ylamino)pyrazine-2-carbonitrile] as the compound, how does the IC50 (Chk1) read?
**A.** ≤ 1 nM

**Q.** What about the IC50 (Chk2) of the same compound?
**A.** 50 to 100 nM

**Q.** And the IC50 (HT-29)?
**A.** 10 to 50 nM

**Q.** And the AUC(0-inf) ([1]; male, SD, 10 mg/kg)?
**A.** 4640 ng·h/mL

**Q.** What about the AUC(0-t) ([1]; male, SD, 10 mg/kg) of the same compound?
**A.** 4530 ng·h/mL

**Q.** What about the MRT ([1]; male, SD, 10 mg/kg) of the same compound?
**A.** 2.8 h

**Q.** What about the clearance ([1]; male, SD, 10 mg/kg) of the same compound?
**A.** 38.3 mL/min/kg

**Q.** What about the half-life ([1]; male, SD, 10 mg/kg) of the same compound?
**A.** 3.8 h

**Q.** What about the Vd ([1]; male, SD, 10 mg/kg, Vd) of the same compound?
**A.** 12.3 L/kg

**Q.** And the Vd ([1]; male, SD, 10 mg/kg, Vss)?
**A.** 6.4 L/kg

**Q.** What about the “half-life and exposure compared with LY2606368” value [1] of the same compound?
**A.** longer half-life and higher exposure than LY2606368

**Q.** And the Kp (in vivo; female, Balb/c nude)?
**A.** ~6

**Q.** What about the half-life (in vivo; female, Balb/c nude, half-life in blood) of the same compound?
**A.** 6.1 h

**Q.** And the half-life (in vivo; female, Balb/c nude, half-life in tumor tissues)?
**A.** 14 h

**Q.** What about the “distribution into tumor tissues” value (in vivo) of the same compound?
**A.** rapidly distributed into tumor tissues

**Q.** What about the T/C value ([2]; 40 mg/kg, iv, 2 times/week) of the same compound?
**A.** 31%

**Q.** And the “Tumor volume (X ± SD)” value ([2]; 40 mg/kg, iv, 2 times/week)?
**A.** 407 ± 17 mm^3

**Q.** And the “Tumor weight (X ± SD)” value ([2]; 40 mg/kg, iv, 2 times/week)?
**A.** 272 ± 16 mg

**Q.** And the “efficacy compared with references at their MTD” value ([2]; mouse, in vivo)?
**A.** more efficacious than the reference LY-2606368

**Q.** What about the “efficacy compared with LY-2606368, alone or with CPT-11” value (HT-29 tumor xenograft; 40 mg/kg IV twice a week vs LY-2606368 15 mg/kg IV twice a week) of the same compound?
**A.** more efficacious than the reference LY-2606368

**Q.** And the “% T/C value” (HT-29 tumor xenograft; twice a week plus CPT-11 (50 mg/kg, IV, once per week))?
**A.** −9%

**Q.** And the “% T/C value” (HT-29 tumor xenograft; alone, twice a week)?
**A.** 26%

**Q.** And the “effect on anti-tumor growth activity of CPT11” value (HT-29 tumor xenograft; combination with CPT11)?
**A.** enhanced anti-tumor growth activity of CPT11
